Results published in patent publication US20160002273A1, “THIENO[3,2-D]PYRIMIDINE-6-CARBOXAMIDES AND ANALOGUES AS SIRTUIN MODULATORS” (GLAXOSMITHKLINE LLC, priority 2013, published 2016).
Read-outs that look alike come from different tables or passages of the source.

Assays:
[1] = biological target: T1, SIRT2 (Homo sapiens, UniProt Q8IXJ6); assay: SIRT2 deacetylation of Trp 5-mer peptide, OAADPr mass spec assay; assay type: biochemical; set-up: His-SIRT2(1-389)
T1 sequence (Q8IXJ6 1-389): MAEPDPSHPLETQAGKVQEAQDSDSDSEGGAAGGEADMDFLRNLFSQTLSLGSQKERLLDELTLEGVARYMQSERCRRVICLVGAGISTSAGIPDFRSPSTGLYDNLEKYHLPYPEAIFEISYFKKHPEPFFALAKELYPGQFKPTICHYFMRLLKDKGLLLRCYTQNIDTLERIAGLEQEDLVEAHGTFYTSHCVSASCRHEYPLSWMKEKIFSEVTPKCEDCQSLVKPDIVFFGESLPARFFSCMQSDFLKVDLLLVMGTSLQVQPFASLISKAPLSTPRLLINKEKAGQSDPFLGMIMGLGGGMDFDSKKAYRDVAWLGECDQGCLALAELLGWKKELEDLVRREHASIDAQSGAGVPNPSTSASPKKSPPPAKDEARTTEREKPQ

[2] = biological target: T2, SIRT3 (Homo sapiens, UniProt Q9NTG7); assay: SIRT3 deacetylation of Trp 5-mer peptide, OAADPr mass spec assay; details: for SIRT3 inhibition, in words: at the concentrations tested
T2 sequence (Q9NTG7 102-399): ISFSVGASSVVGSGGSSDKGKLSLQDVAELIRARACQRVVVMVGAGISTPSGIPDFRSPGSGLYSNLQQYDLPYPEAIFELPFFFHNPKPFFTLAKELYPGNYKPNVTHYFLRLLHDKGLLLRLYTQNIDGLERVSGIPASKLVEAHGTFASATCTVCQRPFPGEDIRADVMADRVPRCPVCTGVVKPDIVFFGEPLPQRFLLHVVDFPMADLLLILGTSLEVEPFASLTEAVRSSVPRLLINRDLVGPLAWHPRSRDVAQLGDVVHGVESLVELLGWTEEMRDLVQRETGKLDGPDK
Protocol: (§1) All assays were performed at room temperature in reaction buffer (50 mM HEPES, pH 7.5, 150 mM NaCl, 1 mM DTT, 0.05% BSA). […] To prepare the assays for analysis, 20 μL of reaction volume was mixed in 80 μL of 50:50 acetonitrile:methanol mixture. […] Peak data was integrated using RapidFire Integrator software (Agilent, Santa Clara, Calif.).

[3] = biological target: T3, SIRT1 (Homo sapiens, UniProt Q96EB6); assay: SIRT1 deacetylation of Trp 5-mer peptide, OAADPr mass spec assay; details: for SIRT1 inhibition, in words: at the concentrations tested
T3 sequence (Q96EB6 1-747): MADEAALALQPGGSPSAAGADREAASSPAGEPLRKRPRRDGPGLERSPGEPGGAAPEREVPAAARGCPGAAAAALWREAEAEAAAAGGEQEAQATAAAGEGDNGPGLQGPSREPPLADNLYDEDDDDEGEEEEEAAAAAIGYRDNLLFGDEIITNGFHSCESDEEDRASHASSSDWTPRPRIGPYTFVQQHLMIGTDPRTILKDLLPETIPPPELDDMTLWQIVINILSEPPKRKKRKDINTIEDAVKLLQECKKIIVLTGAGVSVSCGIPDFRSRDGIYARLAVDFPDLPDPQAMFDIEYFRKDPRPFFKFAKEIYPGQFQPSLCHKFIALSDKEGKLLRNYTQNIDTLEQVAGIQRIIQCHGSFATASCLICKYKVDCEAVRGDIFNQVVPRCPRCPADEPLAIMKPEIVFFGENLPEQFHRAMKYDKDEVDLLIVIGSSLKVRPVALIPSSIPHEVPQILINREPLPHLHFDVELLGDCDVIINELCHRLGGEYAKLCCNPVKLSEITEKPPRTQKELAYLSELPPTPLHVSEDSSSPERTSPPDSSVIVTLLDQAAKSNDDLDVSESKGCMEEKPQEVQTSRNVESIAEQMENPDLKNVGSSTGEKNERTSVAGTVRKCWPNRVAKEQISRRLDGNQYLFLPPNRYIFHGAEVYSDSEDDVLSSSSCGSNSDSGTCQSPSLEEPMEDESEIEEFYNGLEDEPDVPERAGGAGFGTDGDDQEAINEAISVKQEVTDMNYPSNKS
Protocol: as §1

[4] = Trp 5-mer peptide, class symbols, read-out: Trp SIRT2_IC50
[5] = Trp SIRT3_IC50, Trp 5-mer peptide, class symbols
[6] = Trp SIRT1_IC50, Trp 5-mer peptide, class symbols
[7] = Trp 5-mer peptide and NAD at KM, mean of at least three determinations, read-out: IC50 (μM) SIRT2
[8] = IC50 (μM) SIRT3, Trp 5-mer peptide and NAD at KM, mean of at least three determinations
[9] = IC50 (μM) SIRT1, Trp 5-mer peptide and NAD at KM, mean of at least three determinations

Structure (SMILES) | IC50 [1, 4] | IC50 [2, 5] | IC50 [3, 6] | IC50 [1, 7] | SIRT2 inhibition, in words ([1]; at the concentrations tested) | IC50 [2, 8] | SIRT3 inhibition, in words [2] | IC50 [3, 9] | SIRT1 inhibition, in words [3]
NC(=O)c1cc2ncnc(N3CCC(O)(CN4CCCC4)CC3)c2s1 [Compound 58] | 1 to 10 µM | 1 to 10 µM | 1 to 10 µM |  |  |  |  |  | 
NCCNC(=O)c1cccc(C(=O)NCCN2CCN(c3ncnc4cc(C(N)=O)sc34)CC2)c1 [Compound 127, N1-(2-aminoethyl)-N3-(2-(4-(6-carbamoylthieno[3,2-d]pyrimidin-4-yl)piperazin-1-yl)ethyl)isophthalamide] | < 1 µM | < 1 µM | < 1 µM |  |  |  |  |  | 
CNCC1CCN(c2ncnc3cc(C(N)=O)sc23)CC1 [Compound 55, 4-(4-((methylamino)methyl)piperidin-1-yl)thieno[3,2-d]pyrimidine-6-carboxamide] | 1 to 10 µM | 1 to 10 µM | > 10 µM |  |  |  |  |  | 
CC(C)(C)OC(=O)NCCN1CCN(c2ncnc3cc(C(N)=O)oc23)CC1 [Compound 86] | < 1 µM | 1 to 10 µM | < 1 µM |  |  |  |  |  | 
CC(C)(C)OC(=O)N1CCC(C2CCN(c3ncnc4cc(C(N)=O)oc34)CC2)CC1 [Compound 94, tert-butyl 1′-(6-carbamoylfuro[3,2-d]pyrimidin-4-yl)-[4,4′-bipiperidine]-1-carboxylate] | 1 to 10 µM | > 10 µM | 1 to 10 µM |  |  |  |  |  | 
Cc1nc(N2CCC(CCNC(=O)C(C)(C)C)CC2)c2sc(C(N)=O)cc2n1 [Compound 159] | < 1 µM | 1 to 10 µM | < 1 µM |  |  |  |  |  | 
NC(=O)c1cc2ncnc(N3CCC(CN4CCCC4C(F)(F)F)CC3)c2s1 (centres unmarked) [Compound 132] | < 1 µM | < 1 µM | < 1 µM |  |  |  |  |  | 
Cc1nc(N2CCN(CCN)CC2)c2sc(C(N)=O)cc2n1 [Compound 153] | 1 to 10 µM | 1 to 10 µM | > 10 µM |  |  |  |  |  | 
Cc1nc(N2CCN(CCNS(C)(=O)=O)CC2)c2sc(C(N)=O)cc2n1 [Compound 158] | 1 to 10 µM | 1 to 10 µM | > 10 µM |  |  |  |  |  | 
NC(=O)c1cc2ncnc(N3CCC(CCn4ccnc4)CC3)c2s1 [Compound 52] | < 1 µM | < 1 µM | < 1 µM |  |  |  |  |  | 
CN(C)CCC1CCN(c2ncnc3cc(C(N)=O)sc23)CC1 [Compound 46] | < 1 µM | < 1 µM | 1 to 10 µM |  |  |  |  |  | 
NC(=O)c1cc2ncnc(N3CCC(CCN4CCCC4=O)CC3)c2s1 [Compound 47] | < 1 µM | < 1 µM | < 1 µM |  |  |  |  |  | 
NC(=O)c1cc2ncnc(N3CCC4(CCNC4)CC3)c2s1 [Compound 185] | 1 to 10 µM | < 1 µM | 1 to 10 µM |  |  |  |  |  | 
NCC1CCN(c2ncnc3cc(C(N)=O)sc23)CC1 [Compound 59, 4-(4-(aminomethyl)piperidin-1-yl)thieno[3,2-d]pyrimidine-6-carboxamide] | > 10 µM | > 10 µM | > 10 µM |  |  |  |  |  | 
NCCN1CCN(c2ncnc3cc(C(N)=O)oc23)CC1 [Compound 96] | 1 to 10 µM | 1 to 10 µM | > 10 µM |  |  |  |  |  | 
NCCNC(=O)c1cccc(C(=O)NCCN2CCN(c3ncnc4ccsc34)CC2)c1 [Compound 191] | > 10 µM | > 10 µM | > 10 µM |  |  |  |  |  | 
CC(C)(C)C(=O)N1CCC2(CCN(c3ncnc4cc(C(N)=O)sc34)CC2)C1 [Compound 186] | < 1 µM | < 1 µM | < 1 µM |  |  |  |  |  | 

Structure (SMILES) | IC50 [1, 4] | IC50 [2, 5] | IC50 [3, 6] | IC50 [1, 7] | SIRT2 inhibition, in words ([1]; at the concentrations tested) | IC50 [2, 8] | SIRT3 inhibition, in words [2] | IC50 [3, 9] | SIRT1 inhibition, in words [3]
CCNC(=O)c1ccc(C(=O)NCCC2CCN(c3ncnc4cc(C(=O)NCC)sc34)CC2)s1 [Compound 194] | 1 to 10 µM | 1 to 10 µM | 1 to 10 µM |  |  |  |  |  | 
NCCC1CCN(c2ncnc3ccsc23)CC1 [Compound 188, 2-(1-(thieno[3,2-d]pyrimidin-4-yl)piperidin-4-yl)ethanamine 2,2,2-trifluoroacetate] | 1 to 10 µM | > 10 µM | > 10 µM |  |  |  |  |  | 
CC(C)(C)C(=O)NCCC1CCN(c2ncnc3ccsc23)CC1 [Compound 42, N-(2-(1-(thieno[3,2-d]pyrimidin-4-yl)piperidin-4-yl)ethyl)pivalamide] | > 10 µM | > 10 µM | > 10 µM | > 50 µM | no measurable | > 50 µM | no measurable | > 50 µM | no measurable
CCNC(=O)c1cc(Br)cc(C(=O)NCCC2CCN(c3ncnc4cc(C(N)=O)sc34)CC2)c1 [Compound 136, 5-bromo-N^1-(2-(1-(6-carbamoylthieno[3,2-d]pyrimidin-4-yl)piperidin-4-yl)ethyl)-N^3-ethylisophthalamide] | < 1 µM | < 1 µM | < 1 µM |  |  |  |  |  | 
CC(C)(C)C(=O)NCCN1CCN(c2nccc3cc(C(N)=O)sc23)CC1 [Compound 179] | 1 to 10 µM | > 10 µM | > 10 µM |  |  |  |  |  | 
NC(=O)c1cc2ccnc(N3CCN(CCN4CCCC4)CC3)c2s1 [Compound 173] | 1 to 10 µM | < 1 µM | 1 to 10 µM |  |  |  |  |  | 
NC(=O)c1cc2ccnc(N3CCC(CN4CCCC4)CC3)c2s1 [Compound 170] | > 10 µM | 1 to 10 µM | > 10 µM |  |  |  |  |  | 
CC(C)(C)OC(=O)NCCCC1CCN(c2ncnc3cc(C(N)=O)sc23)CC1 [Compound 76, tert-butyl (3-(1-(6-carbamoylthieno[3,2-d]pyrimidin-4-yl)piperidin-4-yl)propyl)carbamate] | < 1 µM | < 1 µM | < 1 µM |  |  |  |  |  | 
CC(C)(C)OC(=O)NCCN1CCN(c2ncnc3cc(C(N)=O)sc23)CC1 [Compound 15b, tert-butyl (2-(4-(6-carbamoylthieno[3,2-d]pyrimidin-4-yl)piperazin-1-yl)ethyl)carbamate] | < 1 µM | < 1 µM | < 1 µM |  |  |  |  |  | 
CCNC(=O)c1cccc(C(=O)NCCN2CCN(c3ncnc4ccsc34)CC2)c1 [Compound 190] | > 10 µM | > 10 µM | > 10 µM |  |  |  |  |  | 
NC(=O)c1cc2ncnc(N3CCC(CCNC(=O)C4CCCC4)CC3)c2s1 [Compound 53] | < 1 µM | < 1 µM | < 1 µM |  |  |  |  |  | 
Cc1nc(N2CCC(CCNC(=O)OC(C)(C)C)CC2)c2sc(C(N)=O)cc2n1 [Compound 145, tert-butyl (2-(1-(6-carbamoyl-2-methylthieno[3,2-d]pyrimidin-4-yl)piperidin-4-yl)ethyl)carbamate] | < 1 µM | < 1 µM | 1 to 10 µM |  |  |  |  |  | 
COC(=O)c1ccc(C(=O)NCCC2CCN(c3ncnc4cc(C(N)=O)sc34)CC2)s1 [Compound 67] | < 1 µM | < 1 µM | < 1 µM |  |  |  |  |  | 
Cc1nc(N2CCC(CCO)CC2)c2sc(C(N)=O)cc2n1 [Compound 151] | 1 to 10 µM | 1 to 10 µM | 1 to 10 µM |  |  |  |  |  | 
NC(=O)c1cc2ncnc(N3CCN(CCNC(=O)C4CCCC4)CC3)c2o1 [Compound 98] | < 1 µM | < 1 µM | < 1 µM |  |  |  |  |  | 
COCCC1CCN(c2ncnc3cc(C(N)=O)sc23)CC1 [Compound 49] | < 1 µM | < 1 µM | < 1 µM |  |  |  |  |  | 
CNC(=O)c1cc2ncnc(N3CCC(CCNC(=O)C(C)(C)C)CC3)c2s1 [Compound 41, N-Methyl-4-(4-(2-pivalamidoethyl)piperidin-1-yl)thieno[3,2-d]pyrimidine-6-carboxamide] | 1 to 10 µM | > 10 µM | > 10 µM | 10 µM |  | > 50 µM | no measurable | > 50 µM | no measurable
